Reference: publication PMC5263201, “GABAA receptor occupancy by subtype selective GABAAα2,3 modulators: PET studies in humans” (Psychopharmacology, 2016)
Where two headings read alike, the source gives them in different places.

Assays:
[1] = target: Melatonin MT1 (Homo sapiens, UniProt P48039); assay: Secondary receptor binding profile
[2] = target: Melatonin MT2 (Homo sapiens, UniProt P49286); assay: Secondary receptor binding profile
[3] = Binding to human plasma proteins; format: in vitro ADME; conditions: read-out: unbound fraction of the total plasma drug
[4] = test system: GABAA α3β3γ2; set-up: method as in Christian et al 2015; conditions: 1µM test concentration, GABA EC10, % of 1 µM diazepam, mean ±SE, ref Christian et al 2015; cited from earlier work
[5] = set-up: method as in AstraZeneca Single Ascending Dose studies; conditions: ref AstraZeneca Single Ascending Dose studies, cited from earlier work
[6] = AZD6280 1mg, Part A, 8 subjects
[7] = AZD6280 5mg, Part B, 8 subjects
[8] = AZD6280 20mg, Part A, 8 subjects
[9] = AZD6280 30mg, Part B, 7 subjects
[10] = AZD6280 40mg, Part A, 8 subjects
[11] = AZD6280 60mg, Part B, 8 subjects

Melatonin MT1, sequence (P48039 whole entry): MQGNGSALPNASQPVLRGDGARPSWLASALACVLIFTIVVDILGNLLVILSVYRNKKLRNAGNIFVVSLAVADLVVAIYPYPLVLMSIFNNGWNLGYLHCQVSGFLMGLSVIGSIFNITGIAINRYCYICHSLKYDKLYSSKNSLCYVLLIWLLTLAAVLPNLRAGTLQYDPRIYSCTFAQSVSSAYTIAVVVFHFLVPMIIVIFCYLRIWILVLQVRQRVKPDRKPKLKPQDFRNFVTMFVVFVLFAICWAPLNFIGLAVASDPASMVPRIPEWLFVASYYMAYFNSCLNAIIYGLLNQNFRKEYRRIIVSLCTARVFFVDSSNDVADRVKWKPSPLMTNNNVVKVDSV
Melatonin MT2, sequence (P49286 whole entry): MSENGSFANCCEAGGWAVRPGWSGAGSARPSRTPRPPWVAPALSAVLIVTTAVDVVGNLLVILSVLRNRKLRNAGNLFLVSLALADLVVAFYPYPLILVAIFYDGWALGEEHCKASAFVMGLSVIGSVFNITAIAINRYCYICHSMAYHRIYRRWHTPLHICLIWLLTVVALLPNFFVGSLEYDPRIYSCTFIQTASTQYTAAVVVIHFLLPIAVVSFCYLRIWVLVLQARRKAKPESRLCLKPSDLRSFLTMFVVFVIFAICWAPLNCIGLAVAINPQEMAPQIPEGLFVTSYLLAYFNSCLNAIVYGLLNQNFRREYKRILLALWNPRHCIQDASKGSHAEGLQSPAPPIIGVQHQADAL

## CCCNC(=O)c1nnc2c(-c3cc(OC)ccc3OC)cccc2c1N [AZD6280]
[1]
  IC50: 116 nM
[2]
  IC50: 664 nM
[3]
  fraction unbound: ~0.1
[4]
  Relative efficacy (%DZ) α3: 34±3%
[5]; [6]
  Number of subjects with at least one adverse event: 2 (25) Number (%) of patients
  abnormal coordination: 0 Number (%) of patients
  depersonalisation: 0 Number (%) of patients
  dizziness: 0 Number (%) of patients
  dreamy state: 0 Number (%) of patients
  euphoric mood: 0 Number (%) of patients
  headache: 1 (13) Number (%) of patients
  nystagmus: 0 Number (%) of patients
  somnolence: 0 Number (%) of patients
[5]; [7]
  abnormal coordination: 0 Number (%) of patients
  depersonalisation: 0 Number (%) of patients
  dizziness: 2 (25) Number (%) of patients
  dreamy state: 0 Number (%) of patients
  euphoric mood: 0 Number (%) of patients
  headache: 1 (13) Number (%) of patients
  nystagmus: 0 Number (%) of patients
  somnolence: 1 (13) Number (%) of patients
[5]; [8]
  Number of subjects with at least one adverse event: 6 (75) Number (%) of patients
  abnormal coordination: 0 Number (%) of patients
  depersonalisation: 0 Number (%) of patients
  dizziness: 0 Number (%) of patients
  dreamy state: 0 Number (%) of patients
  euphoric mood: 0 Number (%) of patients
  headache: 2 (25) Number (%) of patients
  nystagmus: 0 Number (%) of patients
  somnolence: 1 (13) Number (%) of patients
[5]; [9]
  Number of subjects with at least one adverse event: 2 (29) Number (%) of patients
  abnormal coordination: 0 Number (%) of patients
  depersonalisation: 0 Number (%) of patients
  dizziness: 0 Number (%) of patients
  dreamy state: 0 Number (%) of patients
  euphoric mood: 1 (14) Number (%) of patients
  headache: 0 Number (%) of patients
  nystagmus: 0 Number (%) of patients
  somnolence: 2 (29) Number (%) of patients
[5]; [10]
  Number of subjects with at least one adverse event: 6 (75) Number (%) of patients
  abnormal coordination: 0 Number (%) of patients
  depersonalisation: 0 Number (%) of patients
  dizziness: 0 Number (%) of patients
  dreamy state: 0 Number (%) of patients
  euphoric mood: 1 (13) Number (%) of patients
  headache: 0 Number (%) of patients
  nystagmus: 0 Number (%) of patients
  somnolence: 3 (38) Number (%) of patients
[5]; [11]
  Number of subjects with at least one adverse event: 7 (88) Number (%) of patients
  abnormal coordination: 1 (13) Number (%) of patients
  depersonalisation: 1 (13) Number (%) of patients
  dizziness: 2 (25) Number (%) of patients
  dreamy state: 1 (13) Number (%) of patients
  euphoric mood: 0 Number (%) of patients
  headache: 1 (13) Number (%) of patients
  nystagmus: 1 (13) Number (%) of patients
  somnolence: 3 (38) Number (%) of patients
